Results as given in ChEMBL document CHEMBL3098118, “Access to a new class of biologically active quinoline based 1,2,4-triazoles” (2014).
Values after ≈ are worked out from the molar mass of the structure shown.

How the values were obtained:
Format in all cases: functional
Candida albicans = experiment: Antifungal activity against Candida albicans MTCC 183 by agar streak dilution method
Aspergillus niger = experiment: Antifungal activity against Aspergillus niger MTCC 282 by agar streak dilution method
Klebsiella pneumoniae = experiment: Antibacterial activity against Klebsiella pneumoniae MTCC 109 by agar streak dilution method
Pseudomonas aeruginosa = experiment: Antibacterial activity against Pseudomonas aeruginosa MTCC 741 by agar streak dilution method
Escherichia coli = experiment: Antibacterial activity against Escherichia coli MTCC 739 by agar streak dilution method
Bacillus cereus = experiment: Antibacterial activity against Bacillus cereus MTCC 619 by agar streak dilution method
Staphylococcus aureus = experiment: Antibacterial activity against Staphylococcus aureus MTCC 96 by agar streak dilution method

## O=C(CSc1nnc(-c2ccc3ncccc3c2)n1-c1cccc2ccccc12)Nc1nc2ccc(F)cc2s1
Candida albicans
  MIC: 50 µg/mL (≈ 88.9 µM)
Aspergillus niger
  MIC: 25 µg/mL (≈ 44.4 µM)
Klebsiella pneumoniae
  MIC: 62.5 µg/mL (≈ 111 µM)
Pseudomonas aeruginosa
  MIC: 100 µg/mL (≈ 178 µM)
Escherichia coli
  MIC: 100 µg/mL (≈ 178 µM)
Bacillus cereus
  MIC: 50 µg/mL (≈ 88.9 µM)
Staphylococcus aureus
  MIC: 25 µg/mL (≈ 44.4 µM)

## CCOc1ccc2nc(NC(=O)CSc3nnc(-c4ccc5ncccc5c4)n3-c3cccc4ccccc34)sc2c1
Candida albicans
  MIC: 6.25 µg/mL (≈ 10.6 µM)
Aspergillus niger
  MIC: 12.5 µg/mL (≈ 21.2 µM)
Klebsiella pneumoniae
  MIC: 100 µg/mL (≈ 170 µM)
Pseudomonas aeruginosa
  MIC: 25 µg/mL (≈ 42.5 µM)
Escherichia coli
  MIC: 100 µg/mL (≈ 170 µM)
Bacillus cereus
  MIC: 100 µg/mL (≈ 170 µM)
Staphylococcus aureus
  MIC: 200 µg/mL (≈ 340 µM)

## O=C(CSc1nnc(-c2ccc3ncccc3c2)n1-c1cccc2ccccc12)Nc1nc2ccc([N+](=O)[O-])cc2s1
Candida albicans
  MIC: 50 µg/mL (≈ 84.8 µM)
Aspergillus niger
  MIC: 6.25 µg/mL (≈ 10.6 µM)
Klebsiella pneumoniae
  MIC: 50 µg/mL (≈ 84.8 µM)
Pseudomonas aeruginosa
  MIC: 50 µg/mL (≈ 84.8 µM)
Escherichia coli
  MIC: 50 µg/mL (≈ 84.8 µM)
Bacillus cereus
  MIC: 62.5 µg/mL (≈ 106 µM)
Staphylococcus aureus
  MIC: 200 µg/mL (≈ 339 µM)

## CC(=O)Nc1ccc2nc(NC(=O)CSc3nnc(-c4ccc5ncccc5c4)n3-c3cccc4ccccc34)sc2c1
Candida albicans
  MIC: 100 µg/mL (≈ 166 µM)
Aspergillus niger
  MIC: 62.5 µg/mL (≈ 104 µM)
Klebsiella pneumoniae
  MIC: 250 µg/mL (≈ 415 µM)
Pseudomonas aeruginosa
  MIC: 62.5 µg/mL (≈ 104 µM)
Escherichia coli
  MIC: 200 µg/mL (≈ 332 µM)
Bacillus cereus
  MIC: 250 µg/mL (≈ 415 µM)
Staphylococcus aureus
  MIC: 500 µg/mL (≈ 831 µM)

## OC(Cn1cncn1)(Cn1cncn1)c1ccc(F)cc1F [FLUCONAZOLE]
Candida albicans
  MIC: 12.5 µg/mL (≈ 40.8 µM)
Aspergillus niger
  MIC: 6.25 µg/mL (≈ 20.4 µM)

## O=C(CSc1nnc(-c2ccc3ncccc3c2)n1-c1cccc2ccccc12)Nc1nc2ccccc2s1
Candida albicans
  MIC: 100 µg/mL (≈ 184 µM)
Aspergillus niger
  MIC: 200 µg/mL (≈ 367 µM)
Klebsiella pneumoniae
  MIC: 500 µg/mL (≈ 918 µM)
Pseudomonas aeruginosa
  MIC: 500 µg/mL (≈ 918 µM)
Escherichia coli
  MIC: 250 µg/mL (≈ 459 µM)
Bacillus cereus
  MIC: 250 µg/mL (≈ 459 µM)
Staphylococcus aureus
  MIC: 500 µg/mL (≈ 918 µM)

## O=C(CSc1nnc(-c2ccc3ncccc3c2)n1-c1cccc2ccccc12)Nc1nc2ccc(Br)cc2s1
Candida albicans
  MIC: 25 µg/mL (≈ 40.1 µM)
Aspergillus niger
  MIC: 50 µg/mL (≈ 80.2 µM)
Klebsiella pneumoniae
  MIC: 100 µg/mL (≈ 160 µM)
Pseudomonas aeruginosa
  MIC: 100 µg/mL (≈ 160 µM)
Escherichia coli
  MIC: 62.5 µg/mL (≈ 100 µM)
Bacillus cereus
  MIC: 25 µg/mL (≈ 40.1 µM)
Staphylococcus aureus
  MIC: 50 µg/mL (≈ 80.2 µM)

## N#Cc1ccc2nc(NC(=O)CSc3nnc(-c4ccc5ncccc5c4)n3-c3cccc4ccccc34)sc2c1
Candida albicans
  MIC: 6.25 µg/mL (≈ 11 µM)
Aspergillus niger
  MIC: 100 µg/mL (≈ 176 µM)
Klebsiella pneumoniae
  MIC: 50 µg/mL (≈ 87.8 µM)
Pseudomonas aeruginosa
  MIC: 100 µg/mL (≈ 176 µM)
Escherichia coli
  MIC: 50 µg/mL (≈ 87.8 µM)
Bacillus cereus
  MIC: 200 µg/mL (≈ 351 µM)
Staphylococcus aureus
  MIC: 500 µg/mL (≈ 878 µM)

## GENTAMICIN
Klebsiella pneumoniae
  MIC: 25 µg/mL
Pseudomonas aeruginosa
  MIC: 12.5 µg/mL
Escherichia coli
  MIC: 12.5 µg/mL
Bacillus cereus
  MIC: 6.25 µg/mL
Staphylococcus aureus
  MIC: 6.25 µg/mL

## O=C(CSc1nnc(-c2ccc3ncccc3c2)n1-c1cccc2ccccc12)Nc1nc2ccc(Cl)cc2s1
Candida albicans
  MIC: 50 µg/mL (≈ 86.3 µM)
Aspergillus niger
  MIC: 100 µg/mL (≈ 173 µM)
Klebsiella pneumoniae
  MIC: 62.5 µg/mL (≈ 108 µM)
Pseudomonas aeruginosa
  MIC: 200 µg/mL (≈ 345 µM)
Escherichia coli
  MIC: 100 µg/mL (≈ 173 µM)
Bacillus cereus
  MIC: 100 µg/mL (≈ 173 µM)
Staphylococcus aureus
  MIC: 200 µg/mL (≈ 345 µM)

## O=C(CSc1nnc(-c2ccc3ncccc3c2)n1-c1cccc2ccccc12)Nc1nc2ccc(I)cc2s1
Candida albicans
  MIC: 62.5 µg/mL (≈ 93.2 µM)
Aspergillus niger
  MIC: 62.5 µg/mL (≈ 93.2 µM)
Klebsiella pneumoniae
  MIC: 100 µg/mL (≈ 149 µM)
Pseudomonas aeruginosa
  MIC: 250 µg/mL (≈ 373 µM)
Escherichia coli
  MIC: 250 µg/mL (≈ 373 µM)
Bacillus cereus
  MIC: 200 µg/mL (≈ 298 µM)
Staphylococcus aureus
  MIC: 250 µg/mL (≈ 373 µM)

## COc1ccc2nc(NC(=O)CSc3nnc(-c4ccc5ncccc5c4)n3-c3cccc4ccccc34)sc2c1
Candida albicans
  MIC: 25 µg/mL (≈ 43.5 µM)
Aspergillus niger
  MIC: 6.25 µg/mL (≈ 10.9 µM)
Klebsiella pneumoniae
  MIC: 62.5 µg/mL (≈ 109 µM)
Pseudomonas aeruginosa
  MIC: 50 µg/mL (≈ 87 µM)
Escherichia coli
  MIC: 62.5 µg/mL (≈ 109 µM)
Bacillus cereus
  MIC: 100 µg/mL (≈ 174 µM)
Staphylococcus aureus
  MIC: 100 µg/mL (≈ 174 µM)

## Cc1ccc2nc(NC(=O)CSc3nnc(-c4ccc5ncccc5c4)n3-c3cccc4ccccc34)sc2c1
Candida albicans
  MIC: 200 µg/mL (≈ 358 µM)
Aspergillus niger
  MIC: 50 µg/mL (≈ 89.5 µM)
Klebsiella pneumoniae
  MIC: 500 µg/mL (≈ 895 µM)
Pseudomonas aeruginosa
  MIC: 100 µg/mL (≈ 179 µM)
Escherichia coli
  MIC: 200 µg/mL (≈ 358 µM)
Bacillus cereus
  MIC: 250 µg/mL (≈ 447 µM)
Staphylococcus aureus
  MIC: > 500 µg/mL

## CC1(C)S[C@@H]2[C@H](NC(=O)[C@H](N)c3ccccc3)C(=O)N2[C@H]1C(=O)O [AMPICILLIN]
Klebsiella pneumoniae
  MIC: 25 µg/mL (≈ 71.5 µM)
Pseudomonas aeruginosa
  MIC: 25 µg/mL (≈ 71.5 µM)
Escherichia coli
  MIC: 6.25 µg/mL (≈ 17.9 µM)
Bacillus cereus
  MIC: 12.5 µg/mL (≈ 35.8 µM)
Staphylococcus aureus
  MIC: 12.5 µg/mL (≈ 35.8 µM)
